Laboratory results from US8778889B2, “Antimicrobial decapeptide oral hygiene treatment” (The United States of America as represented by the …, priority 2003, dated 2014).
In brackets after ≈: the same amount, converted by molar mass. Square brackets hold non-standard residues; d marks the D form. Peptide text beside a SMILES is read from it. αMeK = C[C@](N)(CCCCN)C(=O)O

What was measured:
[1] = test system: oral biofilms formed on saliva-coated HA disks by salivary bacteria; assay: In vitro plaque assay, viable counts of oral biofilms on saliva-coated HA disks; type: cell-based, human salivary bacteria
Description: In conjunction with the dual flow cell system, a modification of an in vitro plaque model of biofilm formation described by Guggenheim et al. (Guggenheim et al., 2001) was used to determine the effects of tested antimicrobials and other agents on developed oral biofilms (see Appendix I for details). HA disks (Clarkson, south Williamsport, Pa.) were employed as substrates for salivary bacteria to form biofilms.
To determine the inhibitory activity of KSL on developed oral biofilms, disks containing 45 h-old biofilms were transferred to wells containing aqueous KSL (200 μg/ml; 1 ml/well). Following 30 min exposure at 37° C., disks were rinsed with 3×1 ml of saline and transferred to sterile 15 ml polypropylene tubes containing 1 ml PBS. Biofilm cells adherent to surfaces (after treatment) were recovered by sonicating for 2 min at 5 watts with a Microson ultrasonic cell disrupter equipped with a cup horn (Misonix Inc., Farmingdale, N.Y.). Settings including the time interval used in the sonication were predetermined empirically to yield maximal recovery of adherent biofilm cells.
The effect of KSL on disrupted biofilms was assessed by recovering biofilm cells from HA disks (45 h-old biofilms) through sonication as described above. The detached biofilm cells (in sterile dH2O) were mixed with an equal volume of aqueous KSL to obtain a final peptide concentration of 200 μg/ml, and the reaction mixtures incubated at 37° C. for 30 min. The interactions of KSL and suspended biofilm cells were terminated by washing in PBS.
To determine the effect of the surface-active agent (benzalkonium chloride; Sigma, St. Louis, Mo.) in promoting the killing of intact biofilms by KSL, 66 h-old oral biofilms were treated with KSL (200 μg/ml), benzalkonium chloride (0.001%), or a combination of the two agents, followed by viable counts determinations and confocal laser scanning microscopy of treated samples.
Viable counts of biofilm cells derived from treated disks or disrupted biofilms were determined by spiral plating serially diluted samples onto blood agar plates. Distilled water or 0.12% aqueous chlorhexidine digluconate (Sigma) was used as the negative or positive control, respectively. The 45 h-old biofilms were exposed to chlorhexidine for 1 min, and to water for 30 min at 37° C.
In this assay, HA disks (Clarkson Chromatography Products, Inc., South Williamsport, Pa.) were used as surfaces on which plaque formation can occur. Before use, sterile HA disks were conditioned in the wells of a 24-well microtiter plate (Becton Dickinson, Franklin Lakes, N.J.) containing 50% sterile saliva by incubating at room temperature for a minimum of two hours on a rotating platform at 95 rpm. The saliva was removed and each well inoculated with isolated salivary bacteria at a bacterial cell concentration of 1.0×10^7 cells/ml in sterile 50% whole saliva. After two hours of incubation (with rotation) at 37° C. to allow the bacteria to adhere to surfaces, unattached bacteria were removed and replaced with supplemented saliva-based medium. The plates were incubated with rotation at 37° C. for 45 h (with medium replaced three times), or 66 h (with medium replaced five times) in a CO2 incubator prior to treatments, and the recovery of biofilm cells from treated or untreated disks.
In these studies, KSL or KSL-W was used at 200 μg/ml, whereas Bzl and CPC were used at 0.001% and 0.0025%, respectively. […]

[2] = test system: biofilms grown on saliva-coated HA surfaces; assay: Live/Dead BacLight staining with confocal laser scanning microscopy of treated biofilms; type: cell-based, human salivary bacteria; conditions: 66 h-old biofilms; KSL 200 μg/ml, Bzl 0.001%, CHX 0.12%
Description: (A) Effect of KSL on intact versus disrupted 45 h biofilms formed on saliva-coated HA disks by salivary bacteria using the in vitro plaque assay. A Mann-Whitney test was used for comparison of log reductions in CFU between the experimental groups (KSL-treated intact or disrupted biofilms) with the control groups (dH2O-treated intact or disrupted biofilms). The single asterisk represents a statistically significant difference between KSL and dH2O-treated intact biofilms (p<0.05). Likewise, double asterisks represent a statistically significant difference between KSL and dH2O-treated disrupted biofilms (p<0.01). […] (B) Effect of benzalkonium chloride in promoting the bactericidal activity of KSL against 66 h-old intact oral biofilms formed on saliva-coated HA disks using the in vitro plaque system. A Kruskal-Wallis test was used to compare log reductions in CFU among various treatment groups including the control group (dH2O-treated). The single asterisk represents a statistically significant difference between the combined treatment of KSL and benzalkonium chloride (Bzl) and dH2O (p<0.001), KSL (p<0.01), or Bzl (p<0.01)-treated intact biofilms. Double asterisks represent a statistically significant difference between CHX and dH2O (p<0.001) or Bzl (P<0.05)-treated intact biofilms. […] No significant difference in viability counts was observed between CHX-treated versus the combined use of KSL and Bzl. For (A) and (B), the data represent the determinations of one of three separate experiments, each performed in quadruplicate. Bars represent standard deviations. (C) Confocal images of control and treated biofilms grown on saliva-coated HA surfaces. Live/Dead BacLight™ Viability kit (Molecular Probes, Eugene, Oreg.) was used to assess the viability of biofilm cells exposed to different treatments. […] An excitation wavelength of 488 nm was used and the fluorescence light emitted was collected by two separate emission filters, 500-530 nm (SYTO 9, live), and 650-710 nm (propidium iodide, dead). […]

A. baumannii ATCC #19606 = type: cell-based, Acinetobacter baumannii
Description: (§1) As shown in the table below, many drug-resistant pathogens including multidrug-resistant Acinetobacter baumannii (clinical isolates) were susceptible to the bactericidal activity of the newly developed antimicrobial peptides. […] This is shown by their lower MIC and MBC against a number of antibiotic-resistant bacteria including methicillin-resistant Staphylococcus aureus, vancomycin-resistant Enterococci, and multidrug-resistant Acinetobacter baumannii. Many of these resistant strains are involved in nosocomial infections, which affect the immunocompromised and the elderly individuals with weakened defenses. The tests were done in a broth microdilution assay as described in our earlier publication (Concannon et al., 2003).

A. baumannii WRAMC #11 = type: cell-based, Acinetobacter baumannii
Description: as §1

A. baumannii WRAMC #13 = type: cell-based, Acinetobacter baumannii
Description: as §1

A. baumannii WRAMC #14 = type: cell-based, Acinetobacter baumannii
Description: as §1

A. baumannii WRAMC #15 = type: cell-based, Acinetobacter baumannii
Description: as §1

A. baumannii WRAMC #16 = type: cell-based, Acinetobacter baumannii
Description: as §1

A. baumannii WRAMC #17 = type: cell-based, Acinetobacter baumannii
Description: as §1

A. baumannii WRAMC #18 = type: cell-based, Acinetobacter baumannii
Description: as §1

A. baumannii WRAMC #19 = type: cell-based, Acinetobacter baumannii
Description: as §1

A. baumannii WRAMC #2 = type: cell-based, Acinetobacter baumannii
Description: as §1

A. baumannii WRAMC #4 = type: cell-based, Acinetobacter baumannii
Description: as §1

A. baumannii WRAMC #5 = type: cell-based, Acinetobacter baumannii
Description: as §1

A. baumannii WRAMC #8 = type: cell-based, Acinetobacter baumannii
Description: as §1

MRSA ATCC #33591 = type: cell-based, Staphylococcus aureus
Description: as §1

MRSA ATCC #43300 = type: cell-based, Staphylococcus aureus
Description: as §1

MRSA VVRAMC #10 = type: cell-based, Staphylococcus aureus
Description: as §1

MRSA VVRAMC #1 = type: cell-based, Staphylococcus aureus
Description: as §1

MRSA WRAMC #12 = type: cell-based, Staphylococcus aureus
Description: as §1

MRSA WRAMC #9 = type: cell-based, Staphylococcus aureus
Description: as §1

VRE ATCC #51299 = type: cell-based, Enterococci
Description: as §1

VRE VVRAMC #7 = type: cell-based, Enterococci
Description: as §1

VRE WRAMC #3 = type: cell-based, Enterococci
Description: as §1

VRE WRAMC #6 = type: cell-based, Enterococci
Description: as §1

| Compound | viability of biofilm cells by live/dead staining [2] | MBC (A. baumannii WRAMC #11) [µg/mL] | MBC (A. baumannii WRAMC #13) [µg/mL] | MBC (A. baumannii WRAMC #14) [µg/mL] | MBC (A. baumannii WRAMC #16) [µg/mL] | MIC (A. baumannii WRAMC #16) [µg/mL] | MBC (A. baumannii WRAMC #17) [µg/mL] | MIC (A. baumannii WRAMC #17) [µg/mL] | MBC (A. baumannii WRAMC #18) [µg/mL] | MBC (A. baumannii WRAMC #2) [µg/mL] | MBC (A. baumannii WRAMC #4) [µg/mL] | MIC (A. baumannii WRAMC #4) [µg/mL] | MBC (A. baumannii WRAMC #5) [µg/mL] | MBC (A. baumannii WRAMC #8) [µg/mL] | MBC (MRSA ATCC #33591) [µg/mL] | MIC (MRSA ATCC #33591) [µg/mL] | MBC (MRSA ATCC #43300) [µg/mL] | MIC (MRSA ATCC #43300) [µg/mL] | MBC (MRSA VVRAMC #10) [µg/mL] | MIC (MRSA VVRAMC #10) [µg/mL] | further results |
| --- | --- | --- | --- | --- | --- | --- | --- | --- | --- | --- | --- | --- | --- | --- | --- | --- | --- | --- | --- | --- | --- |
| [H]/N=C(\N/C(=N/[H])NCCCCCCNC(=N)NC(=N)Nc1ccc(Cl)cc1)Nc1ccc(Cl)cc1 [chlorhexidine, chlorhexidine digluconate, reference compound] | significantly reduced the viability of biofilm cells |  |  |  |  |  |  |  |  |  |  |  |  |  |  |  |  |  |  |  | reduction of viable counts, intact biofilms ([1]; intact 45-h-old biofilms, 0.12% chlorhexidine, 1 min): larger reduction of viable counts |
| H-DDDEEKFLRRIGRYGKKVVFWVKFK-NH2 [H1-2] |  | 50 | 50 | 50 | 25 | 12.5 | 100 | 25 | 25 | 200 | 50 | 25 | 25 | 25 | 12.5 | 3.125 | 12.5 | 3.125 | 25 | 1.56 | MBC (A. baumannii ATCC #19606): 25 µg/mL; MIC (A. baumannii ATCC #19606): 12.5 µg/mL; MIC (A. baumannii WRAMC #11): 25 µg/mL; MBC (A. baumannii WRAMC #15): 50 µg/mL; MIC (A. baumannii WRAMC #15): 25 µg/mL; MBC (A. baumannii WRAMC #19): 200 µg/mL; MIC (A. baumannii WRAMC #2): 25 µg/mL; MBC (MRSA VVRAMC #1): 25 µg/mL; MBC (MRSA WRAMC #12): 6.25 µg/mL; MIC (MRSA WRAMC #12): 3.125 µg/mL; MBC (MRSA WRAMC #9): 3.125 µg/mL; MBC (VRE ATCC #51299): 50 µg/mL; MIC (VRE ATCC #51299): 12.5 (25) μg/ml; MIC (VRE VVRAMC #7): <1.56 µg/mL; MBC (VRE VVRAMC #7; VRE VVRAMC #7): 0 µg/mL; MBC (VRE WRAMC #3): 25 µg/mL; MIC (VRE WRAMC #3): 6.25 µg/mL; MBC (VRE WRAMC #6): 6.25 µg/mL; MIC (VRE WRAMC #6): <1.56 µg/mL |
| CC(C)[C@H](NC(=O)[C@H](CCCCN)NC(=O)[C@@H](N)CCCCN)C(=O)N[C@H](C(=O)N[C@@H](Cc1ccccc1)C(=O)N[C@@](C)(CCCCN)C(=O)N[C@H](C(=O)N[C@@H](CCCCN)C(=O)N[C@@H](Cc1ccccc1)C(=O)N[C@@H](CCCCN)C(N)=O)C(C)C)C(C)C [KSL-M, NH2-Lys-Lys-Val-Val-Phe-Lys(me)-Val-Lys-Phe-Lys-CONH2] (H-KKVVF[αMeK]VKFK-NH2) |  | 100 (≈ 79.1 µM) | 200 (≈ 158 µM) | 200 (≈ 158 µM) | 100 (≈ 79.1 µM) | 50 (≈ 39.6 µM) | 200 (≈ 158 µM) | 100 (≈ 79.1 µM) | 100 (≈ 79.1 µM) | 200 (≈ 158 µM) | 50 (≈ 39.6 µM) | 25 (≈ 19.8 µM) | 50 (≈ 39.6 µM) | >200 | >200 | >200 | >200 | >200 | >200 | >200 | MIC (A. baumannii WRAMC #8): >200 µg/mL; MBC (MRSA VVRAMC #1): >200 µg/mL; MIC (MRSA VVRAMC #1): >200 µg/mL; MBC (MRSA WRAMC #12): >200 µg/mL; MIC (MRSA WRAMC #12): >200 µg/mL; MBC (MRSA WRAMC #9): >200 µg/mL; MIC (MRSA WRAMC #9): >200 µg/mL |
| benzalkonium chloride [reference compound] | less impact on the viability of biofilm cells |  |  |  |  |  |  |  |  |  |  |  |  |  |  |  |  |  |  |  | effect on viability of intact biofilms compared to water treatment ([1]; 66 h-old oral biofilms, KSL 200 μg/ml, benzalkonium chloride 0.001%): less effect on the viability |
